Reference: patent publication US11999727B2 (Tango Therapeutics, Inc., priority 2020, dated 2024)

Assays:
[1] = test system: MTAP-null SW1573 cancer cell line; test: 7-day viability assay, combination with an exemplar MTAP-null-selective PRMT5 inhibitor, SW1573; assay type: cell-based; conditions: in combination with an exemplar MTAP-null-selective PRMT5 inhibitor
Source text: FIG. 3. Combination of AG-270, a MAT2A inhibitor effect is synergistic according to the HSA model, where the synergy score quantifies the excess of the highest single compound response

[2] = test system: MTAP-null SW1573 cancer cell line; test: Combination viability assay (CellTiter-Glo, 7 days), SW1573 MTAP-deleted cells; assay type: cell-based; conditions: 7-day viability assay, combination partner: exemplar MTAPnull-selective PRMT5 inhibitor
Description: A SW1573 MTAP-isogenic cell line pair was generated by either reconstituting MTAP gene expression, or by introducing an empty control vector, in the MTAP-deleted SW1573 parental cell line. The cell lines were maintained in DMEM+10% FBS in a humidified, 5% CO2 tissue culture incubator. All test compounds are maintained as 10 mM DMSO stocks.
On Day 0, MTAP-intact and MTAP-deleted cells are seeded in a 384-well plate, and incubated in a humidified, 5% CO2 tissue culture incubator for 16-24 hours. On Day 1, the test compounds are dispensed to wells at defined concentrations (n=2), and the volume of DMSO is normalized to highest class volume. The compound-treated plates are incubated for 7 days in a humidified, 5% CO2 tissue culture incubator.
On Day 7, the plates are removed from the tissue culture incubator and allowed to equilibrate to room temperature. Relative viability is assessed by addition of CellTiter-Glo reagent, and data are plotted as % of DMSO control for each compound in each cell line, with a 4-parameter fit non-linear regression model (GraphPad Prism). Synergy is determined according to the HSA model by the Combenefit software package (Version 2.021).

[3] = biological target: T1, PRMT5 (Homo sapiens, UniProt O14744); test: PRMT5 biochemical IC50 assay with SAM as cofactor; conditions: PRMT5, SAM as cofactor; read-out: SAM IC50
T1 construct: purchased Viva (custom protein)

[4] = biological target: T1, PRMT5; test: PRMT5 biochemical IC50 assay with no cofactor; conditions: PRMT5, no cofactor; read-out: No Cofactor/ rel IC50
Source text: Table 1 indicates IC50 values (μM) against PRMT5 for exemplary compounds in the presence of SAM as cofactor, with no cofactor, and with MTA as cofactor, respectively (columns 4-6). […] Ki values can be calculated from the IC50 values as described in the Examples section. As detailed in the Examples section, for the assay performed in the presence of SAM, IC50=Ki×1.5 (Ki=IC50/1.5).

[5] = biological target: T1, PRMT5; test: PRMT5 biochemical IC50 assay with MTA as cofactor; conditions: PRMT5, MTA as cofactor; read-out: MTA IC50
[6] = test system: HAP1 MTAP-intact cell line; test: SDMA in-cell western assay, HAP1 MTAP-intact; assay type: cell-based; conditions: Homo sapiens, HAP1, SDMA in-cell western, HAP1 MTAP-intact; read-out: MTAP HAP1 intact IC50
Method in brief: (§1)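 IC50 values come from SDMA signal quantified by in-cell western in two HAP1 lines, one with native MTAP levels and one lacking MTAP.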

[7] = test system: HAP1 MTAP-deleted cell line; test: SDMA in-cell western assay, HAP1 MTAP-deleted; assay type: cell-based; conditions: for IC50: Homo sapiens, HAP1, SDMA in-cell western, HAP1 MTAP-deleted, read-out: HAP 1 MTAP deleted IC50; for MTAP intact/deleted ratio: IC50 ratio HAP1 MTAP-intact / HAP1 MTAP-deleted, SDMA in-cell western
Method in brief: as §1

[8] = test system: HAP1 MTAP-deleted cell line; test: Viability assay, MTAP-deleted cell line; assay type: cell-based; conditions: Homo sapiens, HAP1, viability, HAP1 MTAP-deleted cell line; read-out: HAP1 MTAP deleted viability
Source text: Table 1 additionally indicates IC50 values in a viability assay for the MTAP-deleted cell line (column 10), indicating the effect of treatment with compound on cell survival.

T1 sequence (O14744 whole entry): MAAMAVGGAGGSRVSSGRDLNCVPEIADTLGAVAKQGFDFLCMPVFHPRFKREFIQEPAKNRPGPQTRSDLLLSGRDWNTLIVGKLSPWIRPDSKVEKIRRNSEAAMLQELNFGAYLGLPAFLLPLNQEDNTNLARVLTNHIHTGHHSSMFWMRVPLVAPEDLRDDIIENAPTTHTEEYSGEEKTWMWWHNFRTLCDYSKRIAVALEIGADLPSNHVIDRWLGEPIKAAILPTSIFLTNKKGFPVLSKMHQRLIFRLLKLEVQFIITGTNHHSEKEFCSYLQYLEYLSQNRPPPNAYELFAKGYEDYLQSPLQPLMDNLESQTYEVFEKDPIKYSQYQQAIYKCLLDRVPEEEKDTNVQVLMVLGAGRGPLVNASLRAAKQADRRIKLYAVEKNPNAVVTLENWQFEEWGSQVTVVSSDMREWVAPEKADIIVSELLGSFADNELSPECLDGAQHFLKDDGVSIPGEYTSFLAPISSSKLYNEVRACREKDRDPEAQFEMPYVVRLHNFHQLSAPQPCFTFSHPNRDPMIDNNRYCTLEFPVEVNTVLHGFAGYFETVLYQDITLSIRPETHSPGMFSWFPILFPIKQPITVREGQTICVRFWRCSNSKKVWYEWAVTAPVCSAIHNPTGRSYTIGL
T1 sequence (Q9BQA1 whole entry partner): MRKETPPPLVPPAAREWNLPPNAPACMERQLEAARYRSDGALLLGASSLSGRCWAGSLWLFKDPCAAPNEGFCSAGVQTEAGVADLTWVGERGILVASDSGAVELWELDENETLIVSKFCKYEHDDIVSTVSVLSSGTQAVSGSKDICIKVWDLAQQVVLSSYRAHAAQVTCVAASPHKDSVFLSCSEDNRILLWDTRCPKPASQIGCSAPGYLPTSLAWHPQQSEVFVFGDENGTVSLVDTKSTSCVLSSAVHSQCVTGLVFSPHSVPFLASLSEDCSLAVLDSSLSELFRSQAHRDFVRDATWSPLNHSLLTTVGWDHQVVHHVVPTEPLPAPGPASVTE

Structure (SMILES)	IC50 [3]	IC50 [4]	IC50 [5]	IC50 [6]	IC50 [7]	Effect of the combination on cellular viability [1]	cellular viability, combination with an exemplar MTAP-null-selective PRMT5 inhibitor [2]	MTAP intact/deleted ratio [7]	IC50 [8]
C=CC(=O)N1CCN(c2nc(=O)n(-c3c(C)ccnc3C(C)C)c3nc(-c4c(O)cccc4F)c(F)cc23)[C@@H](C)C1 [AMG-510]	–	–	–	–	–	enhanced cellular viability defects	enhanced cellular viability defects	–	–
CCc1cc(NC(=O)C(=O)N2C[C@@H](C)CC[C@@H]2c2ccc3sc(-c4ccnn4C)nc3c2)cnc1N [Compound 1389, N-(6-amino-5-ethylpyridin-3-yl)-2-((2R,5S)-5-methyl-2-(2-(1-methyl-1H-pyrazol-5-yl)benzo[d]thiazol-5-yl)piperidin-1-yl)-2-oxoacetamide]	50 to 500 nM	< 50 nM	< 50 nM	100 to 1000 nM	< 100 nM	–	–	A (an IC50 ratio greater than or equal to 10 fold)	< 1000 nM
CCc1cc(NC(=O)C(=O)N2C[C@@H](C)CC[C@@H]2c2ccc(N3CCN(C)CC3)c(C)c2)cnc1N [Compound 1390, N-(6-Amino-5-ethyl-3-pyridyl)-2-[(2R,5S)-5-methyl-2-[3-methyl-4-(4-methylpiperazin-1-yl)phenyl]-1-piperidyl]-2-oxo-acetamide]	50 to 500 nM	50 to 500 nM	< 50 nM	100 to 1000 nM	< 100 nM	–	–	A (an IC50 ratio greater than or equal to 10 fold)	< 1000 nM
CCc1cc(NC(=O)C(=O)N2[C@@H](c3ccc4sc(C5CCN(C)CC5)nc4c3)CCC[C@@H]2C)cnc1N [Compound 1395]	50 to 500 nM	< 50 nM	< 50 nM	< 100 nM	< 100 nM	–	–	A (an IC50 ratio greater than or equal to 10 fold)	< 1000 nM
CCc1cc(NC(=O)C(=O)N2C[C@@H](C)CC[C@@H]2c2ccc3sc(CC4(N(C)C)COC4)nc3c2)cnc1N [Compound 1399, N-(6-amino-5-ethylpyridin-3-yl)-2-((2R,5S)-2-(2-((3-(dimethylamino)oxetan-3-yl)methyl)benzo[d]thiazol-5-yl)-5-methylpiperidin-1-yl)-2-oxoacetamide]	50 to 500 nM	< 50 nM	< 50 nM	100 to 1000 nM	< 100 nM	–	–	A (an IC50 ratio greater than or equal to 10 fold)	< 1000 nM
CCc1cc(NC(=O)C(=O)N2C[C@@H](C)CC[C@@H]2c2ccc(N3CCCC4(CCN(C)CC4)C3)cc2)cnc1N [Compound 1401, N-(6-Amino-5-ethyl-3-pyridyl)-2-[(2R,5S)-5-methyl-2-[4-(9-methyl-2,9-diazaspiro[5.5]undecan-2-yl)phenyl]-1-piperidyl]-2-oxo-acetamide]	50 to 500 nM	< 50 nM	< 50 nM	100 to 1000 nM	< 100 nM	–	–	A (an IC50 ratio greater than or equal to 10 fold)	< 1000 nM
CCc1cc(NC(=O)C(=O)N2C[C@@H](C)CC[C@@H]2c2ccc(CCN(C)C)c(Cl)c2)cnc1N [Compound 1402, N-(6-amino-5-ethylpyridin-3-yl)-2-((2R,5S)-2-(3-chloro-4-(2-(dimethylamino)ethyl)phenyl)-5-methylpiperidin-1-yl)-2-oxoacetamide]	50 to 500 nM	< 50 nM	< 50 nM	100 to 1000 nM	< 100 nM	–	–	A (an IC50 ratio greater than or equal to 10 fold)	< 1000 nM
O=C(Nc1ccc2[nH]nc(-c3ccncc3)c2c1)[C@@H]1CCN(CC(=O)N2CCN(c3ccc(-c4ncccn4)cc3)CC2)C1 [SCH772984]	–	–	–	–	–	enhanced cellular viability defect	enhanced cellular viability defects	–	–
CC(C)Nc1cc(-c2c[nH]c(C(=O)N[C@H](CO)c3cccc(Cl)c3)c2)c(Cl)cn1 [ulixertinib]	–	–	–	–	–	enhanced cellular viability defect	enhanced cellular viability defects	–	–

Further lines, with some results ahead:

IC50 [3]	IC50 [4]	IC50 [5]	IC50 [6]	IC50 [7]	Structure (SMILES)	Effect of the combination on cellular viability [1]	cellular viability, combination with an exemplar MTAP-null-selective PRMT5 inhibitor [2]	MTAP intact/deleted ratio [7]	IC50 [8]
50 to 500 nM	< 50 nM	< 50 nM	< 100 nM	< 100 nM	Cc1cc(NC(=O)C(=O)N2C[C@@H](C)CC[C@@H]2c2ccc3sc(CCN4CCOCC4)nc3c2)cnc1N [Compound 1387, N-(6-amino-5-methylpyridin-3-yl)-2-((2R,5S)-5-methyl-2-(2-(2-morpholinoethyl)benzo[d]thiazol-5-yl)piperidin-1-yl)-2-oxoacetamide]	–	–	B (an IC50 ratio greater than or equal to 3 fold but lower than 10 fold)	< 1000 nM
< 50 nM	< 50 nM	< 50 nM	< 100 nM	< 100 nM	CCc1cc(NC(=O)C(=O)N2C[C@@H](C)CC[C@@H]2c2ccc3sc([C@H]4CCCN(C)C4)nc3c2)cnc1N [Compound 1388, N-(6-amino-5-ethylpyridin-3-yl)-2-((2R,5S)-5-methyl-2-(2-(1-methylpiperidin-3-yl)benzo[d]thiazol-5-yl)piperidin-1-yl)-2-oxoacetamide]	–	–	A (an IC50 ratio greater than or equal to 10 fold)	< 1000 nM
< 50 nM	< 50 nM	< 50 nM	100 to 1000 nM	< 100 nM	CCc1cc(NC(=O)C(=O)N2C[C@@H](C)CC[C@@H]2c2cccc(OCCN3CCCC3)c2)cnc1N [Compound 1391, N-(6-amino-5-ethylpyridin-3-yl)-2-((2R,5)-5-methyl-2-(3-(2-(pyrrolidin-1-yl)ethoxy)phenyl)piperidin-1-yl)-2-oxoacetamide]	–	–	A (an IC50 ratio greater than or equal to 10 fold)	< 1000 nM
< 50 nM	< 50 nM	< 50 nM	< 100 nM	< 100 nM	CCc1cc(NC(=O)C(=O)N2C[C@@H](C)CC[C@@H]2c2ccc3sc(C45CC(N(C)C)(C4)C5)nc3c2)cnc1N [Compound 1404, N-(6-amino-5-ethylpyridin-3-yl)-2-((2R,5S)-2-(2-(3-(dimethylamino)bicyclo[1.1.1]pentan-1-yl)benzo[d]thiazol-5-yl)-5-methylpiperidin-1-yl)-2-oxoacetamide]	–	–	A (an IC50 ratio greater than or equal to 10 fold)	< 1000 nM
